Assay results as given in PubChem BioAssay (NCI).
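Results reflect a 48-hour exposure of cells in 96-well plates to compound at five concentrations. At the TGI there is no net growth.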

Assays:
Assay in all cases: NCI-60 cell line screen, 48 h
[1] = system: UO-31 renal
[2] = system: MDA-MB-435
[3] = system: OVCAR-8 ovarian
[4] = system: M14 melanoma
[5] = system: HCC-2998 colon
[6] = system: NCI-H23 lung
[7] = system: ACHN renal
[8] = system: NCI/ADR-RES ovarian
[9] = system: BT-549 breast
[10] = system: HOP-92 NSCLC

Compound	TGI [1]	TGI [2]	TGI [3]	TGI [4]	TGI [5]	TGI [6]	TGI [7]	TGI [8]	TGI [9]	TGI [10]
NC(N)=NS(=O)(=O)c1ccc(NC(=O)c2ccc3nc4ccccc4c(N)c3c2)cc1	> 100 µM	> 100 µM	> 100 µM	> 100 µM	> 100 µM	> 100 µM	> 100 µM	> 100 µM	> 100 µM	> 100 µM
COc1cc(Nc2nc3ccccc3nc2C(C)C)cc(OC)c1OC	> 100 µM	> 100 µM	> 100 µM	> 100 µM	> 100 µM	> 100 µM	> 100 µM	> 100 µM	> 100 µM	> 100 µM
Cc1cccc(C(=O)O)c1CC1NCCC2c3ccccc3NC12 (stereo not given)	> 100 µM	> 100 µM	> 100 µM	> 100 µM	> 100 µM	> 100 µM	> 100 µM	> 100 µM	> 100 µM	> 100 µM
COc1cc(C(=O)OCCn2[nH]c(-c3ccc(Cl)cc3)nc2=S)cc(OC)c1OC	24.2 µM	> 100 µM	> 100 µM	> 100 µM	> 100 µM	> 100 µM	> 100 µM	> 100 µM	> 100 µM	95.2 µM
COc1ccc(/C=C2\CN(C)CC3C2=NN(c2ccccc2)C3c2ccc(OC)cc2)cc1 (stereo not given)	> 100 µM	> 100 µM	> 100 µM	> 100 µM	> 100 µM	> 100 µM	> 100 µM	> 100 µM	> 100 µM	> 100 µM
Nc1c2c(nc3ccccc13)CCCc1ccccc1-2	26.3 µM	24.7 µM	30.8 µM	21.6 µM	4.61 µM	> 100 µM	23 µM	69.7 µM	> 100 µM	22.6 µM
CC[C@H]1C=CCC[C@@]2(C[C@@H]3CC[C@@H]4[C@H](C(=O)OCCCCCCCCCCCCCCCC(=O)N(CCCNC(C)=O)C[C@H](CCNC(C)=O)OC(C)=O)[C@]5(CCC[C@@H](C)O5)NC(=[N+]34)N2)O1	2.46 µM	0.545 µM	2.48 µM	0.34 µM	0.221 µM	2.93 µM	1.37 µM	8.18 µM	2.93 µM	0.32 µM
CC(=O)OC1OC(c2ccoc2)C[C@@]12C1CCC3O[C@]3(C)[C@]1(C)C[C@H](OC(C)=O)[C@H]2C (stereo not given in full)	> 75 µM	> 75 µM	> 75 µM	> 75 µM	> 75 µM	> 75 µM	> 75 µM	> 75 µM	> 75 µM	> 75 µM
CC(=O)OCCOCCN1CCN(c2c(O)c3c(c(O)c2Cl)C(=O)C=CC3=O)CC1	2.47 µM	1.95 µM	2.66 µM	1.48 µM	4.31 µM	1.98 µM	0.757 µM	1.21 µM	2.21 µM	0.822 µM
O=C1Nc2ccccc2/C1=C\c1c(Cl)nc2n1CCS2	> 100 µM	43.9 µM	> 100 µM	> 100 µM	35.3 µM	65.8 µM	> 100 µM	67.5 µM	52.8 µM	> 100 µM
CNc1nc2c(C)ccc3[nH]c(N(C)C)nc3c-2n1	> 100 µM	> 100 µM	> 100 µM	51.1 µM	> 100 µM	> 100 µM	76.8 µM	> 100 µM	> 100 µM	> 100 µM
NC(=O)SCC(=O)Nc1ccc2ncccc2c1	> 100 µM	> 100 µM	> 100 µM	> 100 µM	> 100 µM	> 100 µM	> 100 µM	> 100 µM	> 100 µM	> 100 µM
Cc1cc(=O)c2ccccc2n1CCCCCCCCCCn1c(C)cc(=O)c2ccccc21	25.6 µM	29.7 µM	46.7 µM	> 100 µM	24.1 µM	30.9 µM	> 100 µM	> 100 µM	23 µM	38.5 µM
CCn1c(=O)c2c3cc(OC(C)=O)ccc3oc2c2ccc(OC(C)=O)cc21	83 µM	> 100 µM	> 100 µM	> 100 µM	58.2 µM	> 100 µM	85.9 µM	> 100 µM	> 100 µM	90.5 µM
COc1ccc(-c2cc(-c3ccccc3)nc3c2CC(=O)Nc2ccccc2-3)cc1OC	> 100 µM	> 100 µM	0.447 µM	> 100 µM	> 100 µM	> 100 µM	> 100 µM	> 100 µM	> 100 µM	> 100 µM
NC(=O)C1CCCN1C(=O)N(CCCl)N=O (stereo not given)	> 100 µM	> 100 µM	> 100 µM	> 100 µM	> 100 µM	> 100 µM	> 100 µM	> 100 µM	> 100 µM	> 100 µM
COCn1c(C)c(C)c2c(=O)oc(C)nc21	> 100 µM	> 100 µM	> 100 µM	> 100 µM	> 100 µM	> 100 µM	> 100 µM	> 100 µM	> 100 µM	> 100 µM
Cc1ccc(S(=O)(=O)N2CCCSCCN(S(=O)(=O)c3ccc(C)cc3)CCCSCC2)cc1	> 100 µM	> 100 µM	> 100 µM	> 100 µM	> 100 µM	> 100 µM	> 100 µM	> 100 µM	> 100 µM	> 100 µM
